For assay [1], the target named is carbonic anhydrase (Zn-CA) (Bos taurus, UniProt P00921). As to the kind of experiment: fluorescence titration. It is filed as binding.
For assay [2], the target named is T1, yeast alcohol dehydrogenase (Saccharomyces cerevisiae, UniProt P00330).
T1 sequence (P00330 2-348): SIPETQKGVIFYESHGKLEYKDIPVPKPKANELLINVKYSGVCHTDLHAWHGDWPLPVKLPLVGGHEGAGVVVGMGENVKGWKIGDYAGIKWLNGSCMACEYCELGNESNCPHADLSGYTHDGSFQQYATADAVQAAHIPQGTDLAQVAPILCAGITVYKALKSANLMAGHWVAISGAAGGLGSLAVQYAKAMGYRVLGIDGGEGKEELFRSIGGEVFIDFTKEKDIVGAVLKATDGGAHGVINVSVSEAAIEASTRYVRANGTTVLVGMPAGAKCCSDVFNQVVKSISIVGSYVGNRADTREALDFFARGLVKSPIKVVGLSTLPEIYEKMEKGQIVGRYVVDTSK
Kind of assay: fluorescence titration. It is filed as binding.

Sequence of carbonic anhydrase (Zn-CA) (P00921 2-260): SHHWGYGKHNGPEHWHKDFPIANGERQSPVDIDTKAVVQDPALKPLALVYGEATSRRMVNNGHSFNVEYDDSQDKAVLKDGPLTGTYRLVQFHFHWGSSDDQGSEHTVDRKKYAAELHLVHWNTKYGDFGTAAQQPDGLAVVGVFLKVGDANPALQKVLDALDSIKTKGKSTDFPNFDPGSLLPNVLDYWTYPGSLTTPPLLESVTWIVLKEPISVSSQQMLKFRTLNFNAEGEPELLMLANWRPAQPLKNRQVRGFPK

Turning to `COc1cc(NS(=O)(=O)c2ccc(C)cc2)c2ncccc2c1` [TSQ, 6-methoxy-8-p-toluenesulfonamido-quinoline], the Kd in assay [1] turned out to be 0.155 µM; in assay [2] it was 48.6 µM.

The values above are taken from publication PMC3155411 (2011).
